# Assays:
# Experiment in all cases: biochemical
# Design in all cases: DiscoverX kinase panel, active-site competition binding (KINOMEscan type), percent of control at one concentration
# Details in all cases: competition binding, percent of control
# [1] = target: T1, ABL1(F317I)-nonphosphorylated (Homo sapiens, UniProt P00519, F317I)
# T1 construct: nonphosphorylated
# PHKG2 = PHKG2 (Homo sapiens, UniProt P15735)
# PRKD3 = PRKD3 (Homo sapiens, UniProt O94806)
# FER = FER (Homo sapiens, UniProt P16591)
# TESK1 = TESK1 (Homo sapiens, UniProt Q15569)
# EPHA5 = EPHA5 (Homo sapiens, UniProt P54756)
# BUB1 = BUB1 (Homo sapiens, UniProt O43683)
# CDC2L1 = target: T2, CDC2L1 (Homo sapiens, UniProt P21127)
# T2 construct: gene CDK11B
# CSF1R-autoinhibited = CSF1R-autoinhibited (Homo sapiens, UniProt P07333)
# [2] = target: T3, TYK2(JH1domain-catalytic) (Homo sapiens, UniProt P29597)
# T3 construct: JH1domain-catalytic
# IRAK4 = IRAK4 (Homo sapiens, UniProt Q9NWZ3)
# GCN2(Kin.Dom.2,S808G) = target: T4, GCN2(Kin.Dom.2,S808G) (Homo sapiens, UniProt Q9P2K8, S808G)
# T4 construct: gene EIF2AK4; Kin.Dom.2
# NEK9 = NEK9 (Homo sapiens, UniProt Q8TD19)
# NEK3 = NEK3 (Homo sapiens, UniProt P51956)
# PRKX = PRKX (Homo sapiens, UniProt P51817)
# MEK6 = target: T5, MEK6 (Homo sapiens, UniProt P52564)
# T5 construct: gene MAP2K6
# [3] = target: T6, ABL1(F317L)-nonphosphorylated (Homo sapiens, UniProt P00519, F317L)
# T6 construct: nonphosphorylated
# FLT3(R834Q) = FLT3(R834Q) (Homo sapiens, UniProt P36888, R834Q)
# PFPK5(P.falciparum) = target: T7, PFPK5(P.falciparum) (Plasmodium falciparum, UniProt P61075)
# T7 construct: gene MAL13P1.279
# [4] = target: EGFR(L747-E749del, A750P) (Homo sapiens, UniProt P00533, A750P/DEL747-749)
# NEK10 = NEK10 (Homo sapiens, UniProt Q6ZWH5)
# Chain of NEK10 (Q6ZWH5 whole entry): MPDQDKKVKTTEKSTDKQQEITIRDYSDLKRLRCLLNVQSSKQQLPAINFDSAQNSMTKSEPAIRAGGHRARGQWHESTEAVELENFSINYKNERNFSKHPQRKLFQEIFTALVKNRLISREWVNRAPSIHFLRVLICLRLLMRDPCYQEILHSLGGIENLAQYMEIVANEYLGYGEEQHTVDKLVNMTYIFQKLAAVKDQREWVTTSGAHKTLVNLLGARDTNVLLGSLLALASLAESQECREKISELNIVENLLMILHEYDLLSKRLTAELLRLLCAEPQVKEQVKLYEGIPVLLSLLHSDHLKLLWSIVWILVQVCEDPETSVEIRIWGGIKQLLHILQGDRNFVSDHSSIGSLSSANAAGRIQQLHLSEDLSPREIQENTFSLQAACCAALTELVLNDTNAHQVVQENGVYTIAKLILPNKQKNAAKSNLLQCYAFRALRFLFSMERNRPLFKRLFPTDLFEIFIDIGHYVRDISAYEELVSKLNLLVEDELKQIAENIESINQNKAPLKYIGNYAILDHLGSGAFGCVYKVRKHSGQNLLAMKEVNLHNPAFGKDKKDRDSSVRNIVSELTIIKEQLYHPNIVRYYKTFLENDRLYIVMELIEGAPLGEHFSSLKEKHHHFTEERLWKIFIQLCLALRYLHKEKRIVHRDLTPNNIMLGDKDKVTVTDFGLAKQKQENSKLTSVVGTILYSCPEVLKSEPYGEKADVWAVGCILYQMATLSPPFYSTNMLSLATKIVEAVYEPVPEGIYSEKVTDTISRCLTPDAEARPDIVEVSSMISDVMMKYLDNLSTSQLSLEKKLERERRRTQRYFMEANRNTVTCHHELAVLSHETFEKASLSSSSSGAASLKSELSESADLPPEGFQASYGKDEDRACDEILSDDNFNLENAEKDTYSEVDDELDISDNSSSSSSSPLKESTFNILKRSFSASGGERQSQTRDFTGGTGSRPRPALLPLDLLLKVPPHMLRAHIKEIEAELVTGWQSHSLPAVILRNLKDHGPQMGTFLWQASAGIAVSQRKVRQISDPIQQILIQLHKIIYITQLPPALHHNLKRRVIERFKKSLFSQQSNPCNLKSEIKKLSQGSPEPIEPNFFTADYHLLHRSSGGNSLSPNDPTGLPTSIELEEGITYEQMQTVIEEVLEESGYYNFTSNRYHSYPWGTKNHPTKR
# Chain of EPHA5 (P54756 whole entry): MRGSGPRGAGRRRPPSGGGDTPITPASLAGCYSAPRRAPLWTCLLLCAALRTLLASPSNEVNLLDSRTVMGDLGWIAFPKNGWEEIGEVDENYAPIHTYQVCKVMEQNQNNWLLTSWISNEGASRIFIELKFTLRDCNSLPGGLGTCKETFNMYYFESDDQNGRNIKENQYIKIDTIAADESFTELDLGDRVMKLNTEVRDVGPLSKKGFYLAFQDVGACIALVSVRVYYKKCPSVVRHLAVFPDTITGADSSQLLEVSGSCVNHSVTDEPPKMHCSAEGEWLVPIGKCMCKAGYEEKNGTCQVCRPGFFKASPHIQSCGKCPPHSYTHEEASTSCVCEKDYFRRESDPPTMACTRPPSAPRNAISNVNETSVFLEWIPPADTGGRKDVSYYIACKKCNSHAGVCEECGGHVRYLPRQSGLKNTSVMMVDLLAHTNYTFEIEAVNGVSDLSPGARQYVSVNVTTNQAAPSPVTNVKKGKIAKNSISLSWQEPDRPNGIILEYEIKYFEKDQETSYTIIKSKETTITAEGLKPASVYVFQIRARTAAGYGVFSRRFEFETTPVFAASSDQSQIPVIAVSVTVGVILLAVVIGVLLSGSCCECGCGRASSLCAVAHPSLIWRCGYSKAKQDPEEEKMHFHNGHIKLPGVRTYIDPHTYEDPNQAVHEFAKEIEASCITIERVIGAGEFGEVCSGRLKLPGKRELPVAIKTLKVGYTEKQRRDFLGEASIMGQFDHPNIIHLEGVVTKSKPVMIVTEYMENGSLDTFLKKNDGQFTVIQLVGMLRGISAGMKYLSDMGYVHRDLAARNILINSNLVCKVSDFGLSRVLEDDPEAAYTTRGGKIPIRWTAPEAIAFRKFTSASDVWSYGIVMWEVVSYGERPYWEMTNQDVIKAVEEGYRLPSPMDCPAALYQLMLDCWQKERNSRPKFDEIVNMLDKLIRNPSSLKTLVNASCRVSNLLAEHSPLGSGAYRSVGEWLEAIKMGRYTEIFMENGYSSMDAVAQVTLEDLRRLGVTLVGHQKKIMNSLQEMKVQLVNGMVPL
# Chain of FER (P16591 whole entry): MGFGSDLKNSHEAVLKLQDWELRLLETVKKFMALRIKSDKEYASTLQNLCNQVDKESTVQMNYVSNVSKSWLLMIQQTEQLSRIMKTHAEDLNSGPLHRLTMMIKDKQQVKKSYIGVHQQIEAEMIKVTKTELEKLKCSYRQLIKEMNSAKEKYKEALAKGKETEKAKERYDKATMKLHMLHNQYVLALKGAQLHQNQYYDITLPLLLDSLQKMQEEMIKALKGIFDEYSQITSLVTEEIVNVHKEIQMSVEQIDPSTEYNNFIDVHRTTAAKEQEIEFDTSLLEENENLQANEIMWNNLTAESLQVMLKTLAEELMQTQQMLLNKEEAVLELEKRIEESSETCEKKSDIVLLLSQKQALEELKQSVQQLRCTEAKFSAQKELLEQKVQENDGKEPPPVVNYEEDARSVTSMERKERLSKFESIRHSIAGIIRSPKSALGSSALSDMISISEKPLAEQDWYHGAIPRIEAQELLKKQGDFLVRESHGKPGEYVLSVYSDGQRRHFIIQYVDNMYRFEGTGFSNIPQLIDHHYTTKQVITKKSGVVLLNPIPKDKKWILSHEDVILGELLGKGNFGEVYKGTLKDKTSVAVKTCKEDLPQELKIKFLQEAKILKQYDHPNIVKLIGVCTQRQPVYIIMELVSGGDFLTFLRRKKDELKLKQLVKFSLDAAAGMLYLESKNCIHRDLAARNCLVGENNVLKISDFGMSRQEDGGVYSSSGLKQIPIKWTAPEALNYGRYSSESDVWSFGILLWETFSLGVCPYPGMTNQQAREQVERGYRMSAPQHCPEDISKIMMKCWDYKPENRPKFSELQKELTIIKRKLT
# Chain of PRKX (P51817 whole entry): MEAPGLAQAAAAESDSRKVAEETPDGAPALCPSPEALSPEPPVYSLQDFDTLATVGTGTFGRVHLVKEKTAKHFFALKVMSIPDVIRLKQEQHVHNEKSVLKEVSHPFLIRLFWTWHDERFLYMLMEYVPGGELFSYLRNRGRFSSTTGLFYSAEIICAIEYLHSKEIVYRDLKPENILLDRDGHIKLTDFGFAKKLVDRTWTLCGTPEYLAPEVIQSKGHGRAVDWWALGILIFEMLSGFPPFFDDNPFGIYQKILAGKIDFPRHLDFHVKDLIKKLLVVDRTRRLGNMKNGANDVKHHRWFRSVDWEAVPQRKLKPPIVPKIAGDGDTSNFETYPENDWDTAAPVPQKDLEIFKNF
# T4 sequence (Q9P2K8 whole entry S808G): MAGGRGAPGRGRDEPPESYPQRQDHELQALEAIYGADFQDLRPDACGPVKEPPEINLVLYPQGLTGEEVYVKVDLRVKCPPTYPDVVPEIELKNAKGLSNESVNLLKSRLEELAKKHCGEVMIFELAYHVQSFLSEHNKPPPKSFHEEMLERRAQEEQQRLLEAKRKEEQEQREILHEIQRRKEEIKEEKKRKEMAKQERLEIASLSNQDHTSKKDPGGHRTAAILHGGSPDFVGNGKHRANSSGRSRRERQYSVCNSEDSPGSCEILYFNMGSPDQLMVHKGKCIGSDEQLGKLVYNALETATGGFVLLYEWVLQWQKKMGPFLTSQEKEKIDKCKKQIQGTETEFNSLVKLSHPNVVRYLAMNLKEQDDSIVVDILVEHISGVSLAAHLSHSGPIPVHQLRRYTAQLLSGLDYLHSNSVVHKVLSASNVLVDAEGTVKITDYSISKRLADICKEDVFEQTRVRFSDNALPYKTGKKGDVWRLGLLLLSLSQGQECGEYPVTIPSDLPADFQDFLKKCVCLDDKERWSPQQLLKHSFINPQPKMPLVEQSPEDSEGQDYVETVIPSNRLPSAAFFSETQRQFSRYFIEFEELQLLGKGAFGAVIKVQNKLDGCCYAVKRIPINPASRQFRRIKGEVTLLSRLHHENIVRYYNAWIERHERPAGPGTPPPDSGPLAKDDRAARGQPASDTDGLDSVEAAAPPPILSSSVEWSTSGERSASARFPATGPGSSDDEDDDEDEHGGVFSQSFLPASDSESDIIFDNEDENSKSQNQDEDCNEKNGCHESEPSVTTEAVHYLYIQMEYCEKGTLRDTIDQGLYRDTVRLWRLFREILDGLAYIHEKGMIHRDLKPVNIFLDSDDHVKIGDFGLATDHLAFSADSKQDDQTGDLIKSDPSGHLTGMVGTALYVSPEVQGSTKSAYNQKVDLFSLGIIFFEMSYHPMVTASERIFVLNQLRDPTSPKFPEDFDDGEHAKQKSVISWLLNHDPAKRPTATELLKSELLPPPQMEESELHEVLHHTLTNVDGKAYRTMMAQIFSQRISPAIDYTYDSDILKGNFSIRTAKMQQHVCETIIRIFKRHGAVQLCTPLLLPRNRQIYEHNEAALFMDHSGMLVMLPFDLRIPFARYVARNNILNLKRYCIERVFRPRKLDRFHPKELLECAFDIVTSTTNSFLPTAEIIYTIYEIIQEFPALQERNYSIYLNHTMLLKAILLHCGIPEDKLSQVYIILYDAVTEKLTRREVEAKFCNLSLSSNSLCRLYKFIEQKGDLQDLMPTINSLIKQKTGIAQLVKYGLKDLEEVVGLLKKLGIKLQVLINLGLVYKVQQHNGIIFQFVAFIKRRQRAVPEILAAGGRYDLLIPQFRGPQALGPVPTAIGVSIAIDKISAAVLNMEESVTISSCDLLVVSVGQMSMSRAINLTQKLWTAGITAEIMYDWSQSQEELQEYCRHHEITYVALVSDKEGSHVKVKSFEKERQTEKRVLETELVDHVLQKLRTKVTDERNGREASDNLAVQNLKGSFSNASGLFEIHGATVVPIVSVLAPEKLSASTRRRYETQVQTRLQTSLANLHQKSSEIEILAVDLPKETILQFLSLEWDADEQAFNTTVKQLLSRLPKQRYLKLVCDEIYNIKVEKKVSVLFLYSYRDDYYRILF
smiles,measurement,setting,value
"COc1cc2c(cn1)N(C)C(=O)[C@@H](NC(=O)c1nc3n(n1)[C@H](c1ccccc1)CC3)CC2 [GNE684, (S)-N-((S)-7-methoxy-1-methyl-2-oxo-2,3,4,5-tetrahydro-1H-pyrido[3,4-b]azepin-3-yl)-5-phenyl-6,7-dihydro-5H-pyrrolo[1,2-b][1,2,4]triazole-2-carboxamide]",remaining binding at 10 µM,[1],97%
same,remaining binding at 10 µM,PHKG2,75%
same,remaining binding at 10 µM,PRKD3,100%
same,remaining binding at 10 µM,FER,90%
same,remaining binding at 10 µM,TESK1,94%
same,remaining binding at 10 µM,EPHA5,100%
same,remaining binding at 10 µM,BUB1,100%
same,remaining binding at 10 µM,CDC2L1,100%
same,remaining binding at 10 µM,CSF1R-autoinhibited,94%
same,remaining binding at 10 µM,[2],100%
same,remaining binding at 10 µM,IRAK4,100%
same,remaining binding at 10 µM,"GCN2(Kin.Dom.2,S808G)",100%
same,remaining binding at 10 µM,NEK9,99%
same,remaining binding at 10 µM,NEK3,94%
same,remaining binding at 10 µM,PRKX,99%
same,remaining binding at 10 µM,MEK6,100%
same,remaining binding at 10 µM,[3],79%
same,remaining binding at 10 µM,FLT3(R834Q),100%
same,remaining binding at 10 µM,PFPK5(P.falciparum),100%
same,remaining binding at 10 µM,[4],85%
same,remaining binding at 10 µM,NEK10,100%
